Values after ≈ are worked out from the molar mass of the structure shown.
Tested on: Histophilus somni
Experiment: minimum inhibitory concentration (MIC)
Experimental: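 Broth microdilution MIC (Sensititre BOPO7F bovine plate, CLSI methods) of 19 antimicrobials against field isolates of P. multocida, M. haemolytica, H. somni (deep nasopharyngeal swabs) and E. coli, Enterococcus spp. (rectal swabs) from weaned dairy heifers. Incubation 16-24 h at 35 C. MIC is the lowest concentration preventing visible growth. Values with <= or > lie at the tested range limits. Trimethoprim-sulfamethoxazole is given as the trimethoprim component of a 1:19 mixture.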

CN[C@@H]1[C@H](O)[C@H](NC)[C@H]2O[C@@]3(O)C(=O)C[C@@H](C)O[C@H]3O[C@@H]2[C@H]1O [Spectinomycin]
minimum inhibitory concentration (isolate (source animal id): 3): > 64 µg/mL
minimum inhibitory concentration (isolate (source animal id): 4): > 64 µg/mL
minimum inhibitory concentration (isolate (source animal id): 7): ≤ 8 µg/mL
minimum inhibitory concentration (isolate (source animal id): 14): 16 µg/mL (≈ 48.1 µM)
minimum inhibitory concentration (isolate (source animal id): 15): > 64 µg/mL
minimum inhibitory concentration (isolate (source animal id): 17): ≤ 8 µg/mL
minimum inhibitory concentration (isolate (source animal id): 18): > 64 µg/mL
minimum inhibitory concentration (isolate (source animal id): 20): 16 µg/mL (≈ 48.1 µM)
minimum inhibitory concentration (isolate (source animal id): 23): 16 µg/mL (≈ 48.1 µM)
minimum inhibitory concentration (isolate (source animal id): 45): 16 µg/mL (≈ 48.1 µM)
minimum inhibitory concentration (isolate (source animal id): 53): ≤ 8 µg/mL
minimum inhibitory concentration (isolate (source animal id): 83): ≤ 8 µg/mL
minimum inhibitory concentration (isolate (source animal id): 88): > 64 µg/mL
minimum inhibitory concentration (isolate (source animal id): 92): 32 µg/mL (≈ 96.3 µM)
minimum inhibitory concentration (isolate (source animal id): 93): 64 µg/mL (≈ 193 µM)
minimum inhibitory concentration (isolate (source animal id): 99): 16 µg/mL (≈ 48.1 µM)
minimum inhibitory concentration (isolate (source animal id): 100): 16 µg/mL (≈ 48.1 µM)
minimum inhibitory concentration (isolate (source animal id): 105): 16 µg/mL (≈ 48.1 µM)
minimum inhibitory concentration (isolate (source animal id): 107): 16 µg/mL (≈ 48.1 µM)
minimum inhibitory concentration (isolate (source animal id): 108): 16 µg/mL (≈ 48.1 µM)
minimum inhibitory concentration (isolate (source animal id): 109): 16 µg/mL (≈ 48.1 µM)
minimum inhibitory concentration (isolate (source animal id): 110): 32 µg/mL (≈ 96.3 µM)
minimum inhibitory concentration (isolate (source animal id): 117): > 64 µg/mL
minimum inhibitory concentration (isolate (source animal id): 121): > 64 µg/mL
minimum inhibitory concentration (isolate (source animal id): 123): > 64 µg/mL
minimum inhibitory concentration (isolate (source animal id): 124): > 64 µg/mL
minimum inhibitory concentration (isolate (source animal id): 127): > 64 µg/mL
minimum inhibitory concentration (isolate (source animal id): 128): > 64 µg/mL
minimum inhibitory concentration (isolate (source animal id): 130): > 64 µg/mL
minimum inhibitory concentration (isolate (source animal id): 132): > 64 µg/mL
minimum inhibitory concentration (isolate (source animal id): 135): ≤ 8 µg/mL
minimum inhibitory concentration (isolate (source animal id): 140): > 64 µg/mL
minimum inhibitory concentration (isolate (source animal id): 141): 16 µg/mL (≈ 48.1 µM)
minimum inhibitory concentration (isolate (source animal id): 142): 32 µg/mL (≈ 96.3 µM)
minimum inhibitory concentration (isolate (source animal id): 144): > 64 µg/mL
minimum inhibitory concentration (isolate (source animal id): 146): 64 µg/mL (≈ 193 µM)
minimum inhibitory concentration (isolate (source animal id): 147): 16 µg/mL (≈ 48.1 µM)
minimum inhibitory concentration (isolate (source animal id): 151): > 64 µg/mL
minimum inhibitory concentration (isolate (source animal id): 153): > 64 µg/mL
minimum inhibitory concentration (isolate (source animal id): 154): 16 µg/mL (≈ 48.1 µM)
minimum inhibitory concentration (isolate (source animal id): 156): 16 µg/mL (≈ 48.1 µM)
minimum inhibitory concentration (isolate (source animal id): 157): > 64 µg/mL
minimum inhibitory concentration (isolate (source animal id): 176): > 64 µg/mL
minimum inhibitory concentration (isolate (source animal id): 183): > 64 µg/mL
minimum inhibitory concentration (isolate (source animal id): 186): > 64 µg/mL
minimum inhibitory concentration (isolate (source animal id): 196): > 64 µg/mL
minimum inhibitory concentration (isolate (source animal id): 198): > 64 µg/mL
minimum inhibitory concentration (isolate (source animal id): 200): > 64 µg/mL
minimum inhibitory concentration (isolate (source animal id): 206): > 64 µg/mL
minimum inhibitory concentration (isolate (source animal id): 208): > 64 µg/mL
minimum inhibitory concentration (isolate (source animal id): 210): > 64 µg/mL
minimum inhibitory concentration (isolate (source animal id): 212): > 64 µg/mL
minimum inhibitory concentration (isolate (source animal id): 215): > 64 µg/mL
minimum inhibitory concentration (isolate (source animal id): 216): > 64 µg/mL
minimum inhibitory concentration (isolate (source animal id): 218): > 64 µg/mL
minimum inhibitory concentration (isolate (source animal id): 219): > 64 µg/mL
minimum inhibitory concentration (isolate (source animal id): 224): > 64 µg/mL
minimum inhibitory concentration (isolate (source animal id): 228): > 64 µg/mL
minimum inhibitory concentration (isolate (source animal id): 230): > 64 µg/mL
minimum inhibitory concentration (isolate (source animal id): 233): 64 µg/mL (≈ 193 µM)
minimum inhibitory concentration (isolate (source animal id): 238): > 64 µg/mL
minimum inhibitory concentration (isolate (source animal id): 239): > 64 µg/mL
minimum inhibitory concentration (isolate (source animal id): 241): > 64 µg/mL
minimum inhibitory concentration (isolate (source animal id): 242): > 64 µg/mL
minimum inhibitory concentration (isolate (source animal id): 243): > 64 µg/mL
minimum inhibitory concentration (isolate (source animal id): 245): ≤ 8 µg/mL
minimum inhibitory concentration (isolate (source animal id): 246): > 64 µg/mL
minimum inhibitory concentration (isolate (source animal id): 247): > 64 µg/mL
minimum inhibitory concentration (isolate (source animal id): 248): ≤ 8 µg/mL
minimum inhibitory concentration (isolate (source animal id): 250): > 64 µg/mL
minimum inhibitory concentration (isolate (source animal id): 251): > 64 µg/mL
minimum inhibitory concentration (isolate (source animal id): 252): 64 µg/mL (≈ 193 µM)
minimum inhibitory concentration (isolate (source animal id): 254): > 64 µg/mL
minimum inhibitory concentration (isolate (source animal id): 258): > 64 µg/mL
minimum inhibitory concentration (isolate (source animal id): 259): > 64 µg/mL
minimum inhibitory concentration (isolate (source animal id): 262): > 64 µg/mL
minimum inhibitory concentration (isolate (source animal id): 264): 32 µg/mL (≈ 96.3 µM)
minimum inhibitory concentration (isolate (source animal id): 265): 16 µg/mL (≈ 48.1 µM)
minimum inhibitory concentration (isolate (source animal id): 266): > 64 µg/mL
minimum inhibitory concentration (isolate (source animal id): 267): > 64 µg/mL
minimum inhibitory concentration (isolate (source animal id): 269): > 64 µg/mL
minimum inhibitory concentration (isolate (source animal id): 271): > 64 µg/mL
minimum inhibitory concentration (isolate (source animal id): 272): 16 µg/mL (≈ 48.1 µM)
minimum inhibitory concentration (isolate (source animal id): 274): > 64 µg/mL
minimum inhibitory concentration (isolate (source animal id): 276): ≤ 8 µg/mL
minimum inhibitory concentration (isolate (source animal id): 278): > 64 µg/mL
minimum inhibitory concentration (isolate (source animal id): 280): 16 µg/mL (≈ 48.1 µM)
minimum inhibitory concentration (isolate (source animal id): 281): > 64 µg/mL
minimum inhibitory concentration (isolate (source animal id): 283): > 64 µg/mL
minimum inhibitory concentration (isolate (source animal id): 288): > 64 µg/mL
minimum inhibitory concentration (isolate (source animal id): 291): > 64 µg/mL
minimum inhibitory concentration (isolate (source animal id): 292): > 64 µg/mL
minimum inhibitory concentration (isolate (source animal id): 296): > 64 µg/mL
minimum inhibitory concentration (isolate (source animal id): 306): > 64 µg/mL
minimum inhibitory concentration (isolate (source animal id): 336): > 64 µg/mL
minimum inhibitory concentration (isolate (source animal id): 337): > 64 µg/mL
minimum inhibitory concentration (isolate (source animal id): 341): > 64 µg/mL

— the supplement of paper PMC8612539
